The Ki is a dissociation constant, usually derived from enzyme kinetics or from competition with a known ligand. In general, IC50 refers to the concentration needed to halve the response being measured.

The species named for assay [1] is Rattus norvegicus. The experiment in a line: Compound was evaluated for its activity at membrane-bound receptor (M+L+P fraction) from rat frontal cortex. The class given is functional, organism-based. As to conditions: for IC50: Rattus norvegicus, Frontal cortex.
For assay [2], the species on record is Rattus norvegicus. The experiment in a line: Compound was evaluated for its activity at solubilized receptor (CHAPS/salt-solubilized preparation) from rat frontal cortex. Format: functional, organism-based. As to conditions: for IC50: Rattus norvegicus, Frontal cortex.

In the assay listed under Rattus norvegicus [1], `NC(=O)C1(N2CCCCC2)CCN(CCCC(=O)c2ccc(F)cc2)CC1` [PIPAMPERONE] gave a Ki of 1.39 nM and an IC50 of 5.37 nM. For the same molecule, in the assay filed under Rattus norvegicus [2], the Ki was 9.53 nM and the IC50 is 19.1 nM.

In the assay filed under Rattus norvegicus [1], `COc1cccc(OC)c1OCCNCC1COc2ccccc2O1` (centres undefined) showed an inhibition constant (Ki) of 697 nM and an IC50 of 2690 nM. For the same molecule, in the assay listed under Rattus norvegicus [2], the Ki was determined as 3880 nM and the IC50 was 7760 nM.

`O=c1[nH]c2ccccc2n1CCCN1CCC(n2c(=O)[nH]c3cc(Cl)ccc32)CC1` [DOMPERIDONE]: in the assay filed under Rattus norvegicus [1], the Ki was found to be 152 nM and the IC50 is 589 nM. Further, in the assay filed under Rattus norvegicus [2], the Ki worked out at 998 nM and the IC50 is 2000 nM.

For the molecule `O=C(c1ccc(F)cc1)C1CCN(CCn2c(=O)[nH]c3ccccc3c2=O)CC1` [KETANSERIN], in the assay listed under Rattus norvegicus [1], the Ki was 0.68 nM and half-maximal inhibition (IC50) was put at 2.63 nM. Also, in the assay filed under Rattus norvegicus [2], the Ki stood at 3.97 nM and the IC50 was 7.94 nM.

On to `COc1ccc(CN(CCN(C)C)c2ccccn2)cc1` [PYRILAMINE], for which the Ki was 1030 nM in the assay filed under Rattus norvegicus [1] and 9980 nM in the assay filed under Rattus norvegicus [2]. Moreover, the values for the IC50 in the assay filed under Rattus norvegicus [1] and in the assay filed under Rattus norvegicus [2] were 3980 nM and 20000 nM, respectively.

On to (-)-BUTACLAMOL, for which the figures for the “-Log IC50” value in the assay listed under Rattus norvegicus [1] and in the assay listed under Rattus norvegicus [2] were 4.9 and 4.56, respectively. For the same molecule, the Ki was determined as 3260 nM in the assay filed under Rattus norvegicus [1] and 13800 nM in the assay filed under Rattus norvegicus [2].
